How the values were obtained:
[1] = test system: IL-6; test: IL-6 production by keratinocytes (ELISA); format: cell-based, human; details: for IL-6 production: HaCaT and HEKn cells subjected to immune stimuli, ELISA; for IL-6 production induced by IL-17A: galectin-7 knockdown keratinocytes, data not shown
Experimental: (§1) To measure the concentrations of proinflammatory cytokines secreted by keratinocytes, 2×10^4 cells were seeded in 96-well plates. Cells were incubated for 24 hours and then treated with 50 μg/ml LPS, 100 ng/ml human TNF-α, 100 or 200 ng/ml human IL-17A, 200 ng/ml human IL-22, 100 ng/ml human IL-23, or 50 ng/ml IFN-γ at 37° C. for 48 hours. In addition, the MEK inhibitor PD98059 was added along with stimulation by LPS or IL-17A (48 hours). The supernatants were then collected and analyzed by ELISAs, which were performed using a specific combination of paired antibodies (capture and detection antibodies).

[2] = test system: IL-8; test: IL-8 production by keratinocytes (ELISA); format: cell-based, human; details: for IL-8 production: HaCaT and HEKn cells subjected to immune stimuli, ELISA; for IL-8 production induced by IL-17A: galectin-7 knockdown keratinocytes, data not shown
Experimental: as §1

[3] = test system: galectin-7; test: Galectin-7 protein in lung cancer cells (immunoblot); format: cell-based, human; details: for effect on fluvastatin-induced galectin-7 upregulation: co-administered with fluvastatin, 200 μM Mevalonate, 20 μM GGPP, 20 μM FPP
Experimental: (§2) CL83, CL141, CL100, CL25, PC9, PC9-IR, CL97, H1975, and H3255 cells were obtained from Dr. Pan-Chyr Yang (National Taiwan University, Taiwan), and A-431 (ATCC© CRL-1555™), H1650 ((ATCC© CRL-5883™)) and HCC827 ((ATCC© CRL-2868™)) cells were purchased from ATCC. Cells were cultured in RPMI 1640 medium supplemented with 10% fetal bovine serum (Gibco). The mRNA of A549, H23, H226BR, H358, H460, H661, H928, H1299, H1435, and H1437 cells were produced by conventional method, such as the method as described herein.
Lysates from different lung cancer cell samples were prepared and aliquots containing 30 μg of protein from each lysate were analyzed using either 10% or 12% sodium dodecyl sulfate-polyacrylamide gel electrophoresis (SDS-PAGE). A polyvinylidene difluoride Immobilon H-bond membrane (EMD Millipore) was used for immunoblot analysis. The primary antibody against galectin-7 (Novagen) was used.

[4] = test system: galectin-7; test: Galectin-7 expression in keratinocytes (real-time PCR, immunoblot); format: cell-based, human; details: for galectin-7 mRNA and protein expression: 24 hours, methylprednisolone 10.6 μM, tobramycin 8.6 μM, fluvastatin 9.2 μM, pempidine 13 μM; for galectin-7 expression: keratinocytes, other statin drugs, data not shown; for galectin-7 protein expression: treated with cytokines for 2 days, immunoblot
Experimental: Human keratinocyte cell line HaCaT was maintained at 37° C. in Dulbecco's modified Eagle's medium (DMEM) supplemented with 10% of fetal bovine serum (FBS), 2 mM glutamine, 100 U/ml penicillin and 100 μg/ml streptomycin. Short hairpin RNA (shRNA) reagents were obtained from the National RNAi Core Facility located at the Institute of Molecular Biology and Genomic Research Center, Academia Sinica, supported by the National Core Facility Program for Biotechnology Grants of NSC. Four shRNAs with clone IDs of TRCN0000057393, TRCN0000057394, TRCN0000057395, and TRCN0000057396 were used to generate stable galectin-7 knockdown HaCaT clones. HaCaT cells were infected with one of the four shRNA-expressing lentiviruses and puromycin was employed to select stable cell clones after 3 days of infection. After puromycin selection, four individual pooled clones were cultured in puromycin-free medium for 2 weeks before further analysis.
Primary neonatal human epithelial keratinocytes, HEKn cells, were purchased from Gibco. HEKn cells were cultured at 37° C. in keratinocyte serum-free medium (K-SFM) supplemented with 30 μg/ml bovine pituitary extract and 5 ng/ml recombinant human epidermal growth factor from the same company. Compared with HaCaT cells, HEKn cells have a limited proliferation ability and are not suitable for establishing shRNA-based stable knockdown cells; therefore, a small interfering RNA (siRNA) oligo was used to transiently knock down the expression of galectin-7. The Silencer® Select siRNAs were purchased from Invitrogen, including negative control #1 and a predesigned siRNA targeting human galectin-7 (Catalog number: s230574, which targets the sequence of exon 3 of NM_002307.3). Thirty picomoles of siRNAs were delivered into HEKn cells in a 6-well plate setup by means of Lipofectamine 2000.
Cells were harvested and lysed in RIPA lysis buffer containing 1% of Triton X-100 and a protease inhibitor cocktail, and total protein concentrations were measured with a protein assay kit. Proteins in the samples of the lysates with the same amounts of total protein were separated by sodium dodecyl sulfate polyacrylamide gel electrophoresis (SDS-PAGE) and analyzed by immunoblotting. Primary antibodies against phospho-Erk1 (pT202)/Erk2 (pT185), Erk1, Erk2, NF-κB p65, phospho-NF-κB p65 (pS536), IκBα, phospho-IκBα pS32, β-actin, or GAPDH were applied to detect the corresponding proteins. Horseradish peroxidase (HRP)-conjugated secondary antibodies against mouse, rabbit, or goat IgG were then incubated with the membranes, and proteins were visualized by chemiluminescence according to the manufacturer's instructions. Protein quantification was performed by software.
Total RNAs (including mRNA and miRNA) were extracted from cultured cells or mouse ears with the TRIzol Reagent. For measurement of human galectin-7, IL-6, IL-8, IL-17A, and IFN-γ levels, mRNAs were reverse-transcribed into cDNA by means of the cDNA synthesis kit, and real-time PCR was carried out with specific probes accompanied with primers targeting humangalectin-7, IL-6, and IL-8 according to the manufacturer's instructions.

[5] = test system: galectin-7; test: Galectin-7 mRNA in lung cancer cell lines (qPCR); format: cell-based, human; details: CL100 and PC9-IR cells, 24 hours; methylprednisolone 10.6 μM, tobramycin 8.6 μM, fluvastatin 9.2 μM, pempidine 13 μM
Experimental: as §2
Total RNA from each lung cancer cell clone was extracted using TRIzol Reagent (Invitrogen), and cDNA for real-time PCR was generated using the iScript cDNA synthesis kit (Bio-Rad). Quantitative real-time PCR was performed using TaqMan buffer (Roche), and the primers and probes were designed using the Roche Universal Library (UPL). […] For real-time PCR, the CFX Connect Real-Time PCR System (Bio-Rad) was used, and the data were analyzed using CFX Manager software, in which the ΔΔCt method was employed to normalize the data against the endogenous control GAPDH.

[6] = test system: S100A7; test: S100A7 mRNA expression in HaCaT cells (real-time PCR); format: cell-based, human; details: 24 hours, methylprednisolone 10.6 μM, tobramycin 8.6 μM, fluvastatin 9.2 μM, pempidine 13 μM
[7] = test system: galectin-7; test: Galectin-7 levels in lung cancer tumors transplanted in NOD SCID mice (IHC, immunoblot); format: in vivo; details: NOD SCID mice with A549, PC9, PC9-IR cells, 30 mg/kg daily oral gavage, day 21, vs saline
Experimental: NOD.CB17-Prkdcscid/JNarl mice obtained from National Laboratory Animal Center (Taiwan) were engrafted 2×10^6 lung cancer cells subcutaneously at the left and right flanks of the mice. After 10 days of tumor growth, mice were treated by oral gavage with 30 mg/kg fluvastatin or lovastatin in saline solution, or saline solution alone as control, once per day for 21 days. The tumor plaques were harvested and each of them was cut into two pieces. One piece was for immunoblot analysis, and the other one was fixed with 10% formalin and embedded into paraffin block for IHC staining. All animal studies were conducted in the experimental animal facilities of Institute of Biomedical Sciences, Academia Sinica, Taipei, Taiwan, in accordance to institutional rules and ethical guidelines for experimental animal care.

[8] = test system: miR-146a; test: miR-146a expression in keratinocytes (real-time PCR); format: cell-based, human; details: HaCaT and HEKn cells treated with IL-17A
Experimental: For miR-146a quantification, total RNA samples were converted to cDNA, and real-time PCR was conducted with specific primers targeting miR-146a. Human GAPDH and U6 snRNA were selected as internal controls for normalization of the levels of mRNAs and miRNAs, respectively. Relative levels of mRNAs and miRNAs were calculated, and fold changes were obtained by the ΔΔCt method and compared with vector-only control cells.

## IL-21: immune stimulus
[1]
  IL-6 production: only IL-17A (FIG. 2), TNF-α, and LPS (data not shown) induced
[2]
  IL-8 production: only IL-17A (FIG. 2), TNF-α, and LPS (data not shown) induced

## COc1cc2ncnc(Nc3ccc(F)c(Cl)c3)c2cc1OCCCN1CCOCC1 [gefitinib]
[3]; CL25 and CL100 cells, 10 μM, 24 hours
  galectin-7 level (endogenous): downregulated
[3]; CL83, CL141 and PC9 cells, 10 μM, 24 hours
  level of ectopically overexpressed galectin-7: also downregulated

## CC(C)=CCC/C(C)=C/CC/C(C)=C/CC/C(C)=C/COP(=O)(O)OP(=O)(O)O [GGPP]
[3]; PC9-IR cells, 24 hours
  effect on fluvastatin-induced galectin-7 upregulation: blocked

## NC[C@H]1O[C@H](O[C@H]2[C@H](O)[C@@H](O[C@H]3O[C@H](CO)[C@@H](O)[C@H](N)[C@H]3O)[C@H](N)C[C@@H]2N)[C@H](N)C[C@@H]1O [tobramycin]
[4]; HaCaT cells
  galectin-7 mRNA and protein expression: only fluvastatin induced
[5]
  galectin-7 expression (LGLAS7 mRNA): only fluvastatin induced
[6]
  S100A7 mRNA expression: only fluvastatin

## S=C(S)N1CCCC1 [PDTC]
[1]
  IL-6 production induced by IL-17A: not blocked
[2]
  IL-8 production induced by IL-17A: not blocked

## O=C(O)C[C@H](O)C[C@H](O)/C=C/c1c(C2CC2)nc2ccccc2c1-c1ccc(F)cc1 [pitavastatin]
[4]
  galectin-7 expression: induced galectin-7 expression

## COc1cccc(-c2cc(=O)c3ccccc3o2)c1N [PD98059]
[1]
  IL-6 production induced by IL-17A: significantly blocked
[2]
  IL-8 production induced by IL-17A: significantly blocked

## TNF-α
[1]
  IL-6 production: induced
[4]; HaCaT cells
  galectin-7 protein expression: significantly reduced
[2]
  IL-8 production: induced

## CC(C)c1c(C(=O)Nc2ccccc2)c(-c2ccccc2)c(-c2ccc(F)cc2)n1CC[C@@H](O)C[C@@H](O)CC(=O)O [atorvastatin]
[4]
  galectin-7 expression: induced galectin-7 expression

## C[S+]([O-])c1ccc(-c2nc(-c3ccncc3)c(-c3ccc(F)cc3)[nH]2)cc1 (centres unmarked) [SB203580]
[1]
  IL-6 production induced by IL-17A: not blocked
[2]
  IL-8 production induced by IL-17A: not blocked

## CC[C@H](C)C(=O)O[C@H]1C[C@@H](C)C=C2C=C[C@H](C)[C@H](CC[C@@H]3C[C@@H](O)CC(=O)O3)[C@H]21 [lovastatin]
[4]
  galectin-7 expression: induced galectin-7 expression
[7]
  galectin-7 expression in transplanted tumors: increased

## CC[C@H](C)C(=O)O[C@H]1CCC=C2C=C[C@H](C)[C@H](CC[C@@H]3C[C@@H](O)CC(=O)O3)[C@H]21 [mevastatin]
[4]
  galectin-7 expression: induced galectin-7 expression

## CC(C)=CCC/C(C)=C/CC/C(C)=C/COP(=O)(O)OP(=O)(O)O [FPP]
[3]; PC9-IR cells, 24 hours
  effect on fluvastatin-induced galectin-7 upregulation: blocked

## CN1C(C)(C)CCCC1(C)C [pempidine]
[4]; HaCaT cells
  galectin-7 mRNA and protein expression: only fluvastatin induced
[5]
  galectin-7 expression (LGLAS7 mRNA): only fluvastatin induced
[6]
  S100A7 mRNA expression: only fluvastatin

## epidermal growth factor (EGF): epidermal growth factor, activates EGFR signaling
[3]; CL25, CL100, PC9 and PC9-IR cells starved overnight, 10 ng/ml EGF
  galectin-7 expression: transiently upregulated

## IL-17A: cytokine known to promote psoriatic inflammation
[1]
  IL-6 production: induced
[4]; HEKn cells
  galectin-7 protein expression: reduced
[4]; HaCaT cells
  galectin-7 protein expression: reduced
[2]
  IL-8 production: induced
[8]
  miR-146a expression: induced miR-146a expression

## CC(O)(CCO)CC(=O)O (centres unmarked) [mevalonate]
[3]; PC9-IR cells, 200 μM mevalonate with 10 μM statins, 24 hours
  effect on statin-induced upregulation of galectin-7: reversed
[3]; PC9-IR cells, 24 hours
  effect on fluvastatin-induced galectin-7 upregulation: reversed

## IFN-γ: interferon (IFN)-γ, immune stimulus
[1]
  IL-6 production: only IL-17A (FIG. 2), TNF-α, and LPS (data not shown) induced
[4]; HaCaT cells
  galectin-7 protein expression: modest effects
[2]
  IL-8 production: only IL-17A (FIG. 2), TNF-α, and LPS (data not shown) induced

## CC(C)=CCCC(C)=CCCC(C)=CCSc1ccccc1C(=O)O [FTS, farnesyl thiosalicylic acid]
[3]; PC9-IR cells, 1 μM fluvastatin, FTS, 24 hours
  galectin-7 expression: increased galectin-7 expression
